Reference: PMC10250256, “A radiohybrid theranostics ligand labeled with fluorine-18 and lutetium-177 for fibroblast activation protein-targeted imaging and radionuclide therapy” (European Journal of Nuclear Medicine and Molecular Imaging, 2023)
“And” between values parts separate entries of the source, which are not always exact repeats. Equal entries are not always repeated. “Also recorded” adds a separate entry of the source. Where two headings read alike, the source gives them in different places.

Key:
FAP = biological target: T1, FAP (Homo sapiens, UniProt Q12884); experiment: competitive FAP binding assay against [^177Lu]Lu-FAPI-04 in HT-1080-FAP cells
T1 construct: expressed in transfected cells; host or cells: HT-1080 human fibrosarcoma cells (HT-1080-FAP)
T1 sequence (Q12884 1-760): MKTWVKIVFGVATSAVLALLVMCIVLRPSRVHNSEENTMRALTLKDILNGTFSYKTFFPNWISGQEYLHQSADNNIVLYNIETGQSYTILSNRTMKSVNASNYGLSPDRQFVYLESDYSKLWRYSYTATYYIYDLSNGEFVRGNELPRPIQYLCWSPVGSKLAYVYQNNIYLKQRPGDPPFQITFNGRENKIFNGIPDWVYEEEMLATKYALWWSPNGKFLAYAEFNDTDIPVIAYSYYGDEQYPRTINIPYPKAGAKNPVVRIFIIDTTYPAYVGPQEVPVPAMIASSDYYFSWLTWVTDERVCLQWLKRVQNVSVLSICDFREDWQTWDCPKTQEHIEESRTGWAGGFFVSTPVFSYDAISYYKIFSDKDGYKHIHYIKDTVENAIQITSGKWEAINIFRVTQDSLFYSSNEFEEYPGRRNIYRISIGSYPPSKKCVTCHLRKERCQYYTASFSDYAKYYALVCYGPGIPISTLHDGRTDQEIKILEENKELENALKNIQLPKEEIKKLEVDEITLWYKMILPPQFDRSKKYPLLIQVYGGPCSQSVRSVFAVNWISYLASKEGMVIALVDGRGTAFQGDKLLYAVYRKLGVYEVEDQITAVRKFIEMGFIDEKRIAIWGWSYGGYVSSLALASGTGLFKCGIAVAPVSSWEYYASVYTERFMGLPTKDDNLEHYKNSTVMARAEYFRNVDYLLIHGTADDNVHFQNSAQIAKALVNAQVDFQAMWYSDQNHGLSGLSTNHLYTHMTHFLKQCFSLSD

HT-1080-FAP tumor slide = biological target: T2, HT-1080-FAP tumor slide (Homo sapiens, UniProt Q12884); experiment: in vitro autoradiography of HT-1080-FAP tumor slides; conditions: unlabeled 20 at 130 μM
T2 construct: from tissue; host or cells: slides of HT-1080-FAP xenograft tumor (transfected human fibrosarcoma cells grown subcutaneously in BALB/C-nu/nu mice)
T2 sequence (Q12884 1-760): T1 sequence (Q12884 1-760)
Protocol: The slides of HT-1080-FAP tumor were incubated with [^18F]21 for 1 h, exposed on a phosphoscreen, and subsequently scanned on a Beckman Coulter FLA7000IP Typhoon storage phosphorimager. Immunohistochemical staining of FAP was performed on the adjacent section.

HT-1080 cells = experiment: cell uptake in HT-1080 (FAP negative) cells; assay type: cell-based, human
Protocol: (§1) The human fibrosarcoma cell lines HT-1080 and HT-1080-FAP transferred with human FAP gene were both cultured in Dulbecco modified Eagle medium supplemented with 10% fetal bovine serum (Gibco, USA) at 37℃/5% carbon dioxide. For cell uptake experiments, HT-1080-FAP cells (~ 1 × 10^5/well) or HT-1080 (~ 1 × 10^5/well) were seeded in 24-well plates for 24–48 h and incubated at 37℃ with radiolabeled compounds (74 kBq/well) in 0.5 mL of serum-free medium for indicated times. Non-specific binding was determined by co-incubating with 100 μM FAP inhibitor UAMC1110. For competitive FAP binding assays, HT-1080-FAP cells were incubated with [^177Lu]Lu-FAPI-04 (74 kBq/well) in the presence of different concentrations (10^−3–10^4 nM) of competing non-radioactive ligands. For internalization experiments, the radiotracer-incubated cells were washed twice with PBS (pH 7.4), followed by glycine–HCl (0,05 M, pH = 2.8) solution to distinguish between cell surface–bound (acid-releasable) and internalized (acid-resistant) radioligand. For efflux experiments, cells were preincubated with [^177Lu]21 or [^177Lu]Lu-FAPI-04 for 1 h and subsequently incubated at 37 °C in a medium free of radiotracer and serum for different time periods. […] Cell lysates were collected and the radioactivity was determined using a γ-counter.

[1] = in vivo stability in ICR mice, blood samples (radio-HPLC)
Protocol: (§2) [^18F]21 or [^177Lu]21 (50 μCi, 10 μL) was added to PBS (90 μL) or murine serum (90 μL) and the mixture was incubated at 37 °C for a certain time ([^18F]21: 2 h, [^177Lu]21: 8 d). The PBS mixture was injected directly into the radio-HPLC for analysis. The murine serum was precipitated with 0.1 mL of acetonitrile and centrifuged (10,000 rpm, 5 min). The supernatant was measured and analyzed by the radio-HPLC to determine the stability. For in vivo stability study, the radio tracers were injected into the tail vein of ICR mice and samples of blood were collected after a certain time post injection (pi) ([^18F]21: 4 h, [^177Lu]21: 9 h). The plasma proteins were precipitated using an equal volume of acetonitrile and centrifuged (10,000 rpm, 5 min). The RCP of radio tracer in supernatants were analyzed and quantified by radio-HPLC. The radio-HPLC method was as follows: A: 0.1% TFA in H2O, B: ACN, 0–10 min, 0–100% B. The flow rate was 1 mL/min, and the C18 column (4.6 × 150 mm, 5 μm, ZORBAX, Agilent) was used. When using HPLC to assess the stability of [^177Lu]21, the effluent was collected every 30 s due to its less radioactivity, and samples were measured by an automatic γ-counter (2480 Wizard2, Perkin Elmer). The counted samples were plotted as intensity (cpm) against fraction.

[2] = in vitro stability in PBS or murine serum (radio-HPLC); assay type: in vitro ADME
Protocol: as §2

HT-1080-FAP cells [3] = experiment: internalization experiments in HT-1080-FAP cells; assay type: cell-based, human; conditions: 10 min
Protocol: as §1

HT-1080-FAP xenograft = experiment: micro-PET/CT imaging, HT-1080-FAP xenograft; assay type: in vivo, BALB/C-nu/nu mice
Protocol: (§3) All animal experiments were conducted in compliance with a protocol approved by the First Affiliated Hospital of Sun Yat-sen University Institutional Animal Care and Use Committee. BALB/C-nu/nu mice (4–5-week old with body weight of 16–22 g) were purchased from GemPharmatech Co., Ltd. Mice were housed under standard conditions with temperature and light control (12-h-light/12-h-dark cycle) and had free access to water and food. For the tumor model, HT-1080-FAP or HT-1080 cells (5 × 10^6) were subcutaneously injected into the right or left flank of nude mice, respectively. As the tumor diameter reached 3–4 mm, mice were treated with radioligands. Micro-PET and SPECT imaging studies, as well as biodistribution, were conducted when the tumor diameter reached 5–10 mm.
(§4) The dynamic micro-PET/CT (Siemens Inveon) imaging studies were conducted to evaluate the pharmacokinetics. The HT-1080-FAP and HT-1080 tumor-bearing mice were injected with 3.7–7.4 MBq of [^18F]21 or [^68 Ga]Ga-FAPI-04 via tail vein. […] Dynamic PET scans were performed from 0 to 120 min with image reconstruction of every 5 min. Micro-PET imaging was reconstructed using a three-dimensional ordered-subset expectation maximum (OSEM) algorithm (Siemens, Erlangen, Germany). The images and regions of interest (ROIs) were produced using Inveon Research Workplace (Siemens, Erlangen, Germany).

HT-1080 xenograft = experiment: micro-PET/CT imaging, FAP-negative HT-1080 xenograft; assay type: in vivo, BALB/C-nu/nu mice; conditions: dynamic PET 0-120 min
Protocol: as §3, §4

HT-1080-FAP cells [4] = experiment: cell uptake in HT-1080-FAP cells; assay type: cell-based, human
Protocol: The human fibrosarcoma cell lines HT-1080 and HT-1080-FAP transferred with human FAP gene were both cultured in Dulbecco modified Eagle medium supplemented with 10% fetal bovine serum (Gibco, USA) at 37℃/5% carbon dioxide. For cell uptake experiments, HT-1080-FAP cells (~ 1 × 10^5/well) or HT-1080 (~ 1 × 10^5/well) were seeded in 24-well plates for 24–48 h and incubated at 37℃ with radiolabeled compounds (74 kBq/well) in 0.5 mL of serum-free medium for indicated times. Non-specific binding was determined by co-incubating with 100 μM FAP inhibitor UAMC1110. For competitive FAP binding assays, HT-1080-FAP cells were incubated with [^177Lu]Lu-FAPI-04 (74 kBq/well) in the presence of different concentrations (10^−3–10^4 nM) of competing non-radioactive ligands. For internalization experiments, the radiotracer-incubated cells were washed twice with PBS (pH 7.4), followed by glycine–HCl (0,05 M, pH = 2.8) solution to distinguish between cell surface–bound (acid-releasable) and internalized (acid-resistant) radioligand. For efflux experiments, cells were preincubated with [^177Lu]21 or [^177Lu]Lu-FAPI-04 for 1 h and subsequently incubated at 37 °C in a medium free of radiotracer and serum for different time periods. The medium was removed and the cells were washed twice with cold PBS (pH 7.4) and subsequently lysed with 0.5 mL of NaOH (1 M). Cell lysates were collected and the radioactivity was determined using a γ-counter.

[5] = 60 min pi, FAPI-04 25 μg/animal co-injected

CC(C)(C)[Si](F)(c1ccc(C(=O)NC[C@H](NC(=O)CCC(C(=O)O)N2CCN(CC(=O)O)CCN(CC(=O)O)CCN(CC(=O)O)CC2)C(=O)NC[C@H]2CC[C@H](C(=O)NCCCOc3ccc4nccc(C(=O)NCC(=O)N5CC(F)(F)C[C@H]5C#N)c4c3)CC2)cc1)C(C)(C)C (stereo partly drawn) [Compound 20]
IC50 (FAP): 2.29 ± 1.12 nM | blocking of [^18F]21 autoradiography signal (HT-1080-FAP tumor slide): could be blocked by unlabeled 20

CC(C)(C)[Si]([18F])(c1ccc(C(=O)NCC(NC(=O)CCC(C(=O)O)N2CCN(CC(=O)[O-])CCN(CC(=O)[O-])CCN(CC(=O)[O-])CC2)C(=O)NCC2CCC(C(=O)NCCCOc3ccc4nccc(C(=O)NCC(=O)N5CC(F)(F)CC5C#N)c4c3)CC2)cc1)C(C)(C)C.[Lu+3] (stereo not drawn) [[^18F]21]
cell uptake in FAP negative cells (HT-1080 cells): Almost no uptakes | metabolization in blood samples (radio-HPLC) ([1]; ICR mice, within 4 h pi): little evidence of any metabolization | in vivo stability ([1]; as summarised in discussion): > 90% | time stable in vitro ([2]; 37 °C, PBS or murine serum): at least 2 h | in vitro stability ([2]; as summarised in discussion): > 90% | internalization rate (HT-1080-FAP cells [3]): > 80% | tumor uptake (PET ROI), without competitor (HT-1080-FAP xenograft; 60 min pi): 14.13 ± 3.19 %ID/g | tumor uptake (PET ROI), blocking with FAPI-04 (HT-1080-FAP xenograft; [5]): 3.8 ± 0.89 %ID/g | uptake in joints, blocking with FAPI-04 (HT-1080-FAP xenograft; [5]): blocked significantly | fold higher tumor uptake than [^68 Ga]Ga-FAPI-04 (HT-1080-FAP xenograft; 2 h pi): 14.9 fold | HT-1080-FAP tumor uptake (PET) (HT-1080-FAP xenograft; 2 h pi, dynamic PET): 10.04 %ID/g | FAP-negative HT-1080 tumor uptake (PET) (HT-1080 xenograft): did not show any uptakes | cell uptake (HT-1080-FAP cells [4]; 10 min incubation): 60.18% ± 3.84 | cell uptake (HT-1080-FAP cells [4]; 1 h incubation): 86.43% ± 5.47 and 86.43% ± 5.46 | cell uptake with competitor (HT-1080-FAP cells [4]; co-incubation with 100 μM FAP inhibitor UAMC1110): could be blocked by FAP inhibitor; also recorded: could be blocked by UAMC1110

CC(C)(C)[Si](F)(c1ccc(C(=O)NCC(NC(=O)CCC(C(=O)O)N2CCN(CC(=O)[O-])CCN(CC(=O)[O-])CCN(CC(=O)[O-])CC2)C(=O)NCC2CCC(C(=O)NCCCOc3ccc4nccc(C(=O)NCC(=O)N5CC(F)(F)CC5C#N)c4c3)CC2)cc1)C(C)(C)C.[Lu+3] (stereo not drawn) [Compound 21]
IC50 (FAP; HT-1080-FAP cells, competition with [^177Lu]Lu-FAPI-04, read-out: IC50 (binding affinity towards FAP)): 2.53 ± 1.87 nM
